This passage reports IC50 results from US20240228448A1 (Washington University, priority 2021, published 2024).

Read-outs that look alike come from different tables or passages of the source.

One test deals with S1P2-5. The experiment in a line: competitive S1Ps cell membrane binding assay against [32P]S1P, S1P2-5 reported together. The settings on record: Table 7; read-out: IC50 (nM) S1P2-5.
A further test concerns the target S1P1 (Homo sapiens, UniProt P21453). The test can be described thus: competitive S1Ps cell membrane binding assay against [32P]S1P, S1P1.
A further test deals with S1P5 (Homo sapiens, UniProt Q9H228). The test can be described thus: competitive S1Ps cell membrane binding assay against [32P]S1P, S1P5. To be noted: Table 5; read-out: IC50 (nM) S1P5.
Setting [1] is: read-out: IC50 (nM) S1P1, Table 5.

Sequence of S1P5 (Q9H228 whole entry, species assumed): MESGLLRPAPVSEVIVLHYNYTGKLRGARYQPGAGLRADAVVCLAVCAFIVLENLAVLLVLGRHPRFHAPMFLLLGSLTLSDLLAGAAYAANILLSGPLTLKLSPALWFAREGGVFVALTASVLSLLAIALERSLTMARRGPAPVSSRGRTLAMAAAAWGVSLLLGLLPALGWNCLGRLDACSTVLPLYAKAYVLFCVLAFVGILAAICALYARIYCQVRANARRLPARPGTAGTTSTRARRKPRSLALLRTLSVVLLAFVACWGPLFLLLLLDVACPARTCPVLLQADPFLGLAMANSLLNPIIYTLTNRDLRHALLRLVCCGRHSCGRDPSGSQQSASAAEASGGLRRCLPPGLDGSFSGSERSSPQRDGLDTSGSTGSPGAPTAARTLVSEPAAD
Sequence of S1P1 (P21453 whole entry, species assumed): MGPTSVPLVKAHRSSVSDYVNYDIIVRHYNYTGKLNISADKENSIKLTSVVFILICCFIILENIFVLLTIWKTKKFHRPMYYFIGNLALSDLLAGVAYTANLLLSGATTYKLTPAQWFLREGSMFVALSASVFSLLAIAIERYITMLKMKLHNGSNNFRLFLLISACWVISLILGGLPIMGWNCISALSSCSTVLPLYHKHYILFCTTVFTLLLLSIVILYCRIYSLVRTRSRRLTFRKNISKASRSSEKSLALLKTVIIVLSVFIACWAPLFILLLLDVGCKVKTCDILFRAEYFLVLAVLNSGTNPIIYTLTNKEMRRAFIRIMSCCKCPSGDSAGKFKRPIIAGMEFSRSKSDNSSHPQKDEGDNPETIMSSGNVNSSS
From the text for S1P1: (§1) One way to measure affinity is use of a general competition binding assay.
From the text for S1P2-5: as §1
From the text for S1P5: as §1

As to `OCCOCc1ccc(-c2noc(-c3ccc(OCCF)c(C(F)(F)F)c3)n2)cc1` [TZ48-77], the IC50 in the test with S1P2-5 is > 1000 nM.

Take `OCc1ccc(-c2noc(-c3ccc(OCCF)c(C(F)(F)F)c3)n2)cc1F` [TZ67-138]: the concentration for half-maximal inhibition (IC50) in the test on S1P2-5 was > 1000 nM.

For `FCCOc1ccc(-c2nc(-c3ccc4cc[nH]c4c3)no2)cc1C(F)(F)F` [TZ73-11], the IC50 at S1P1 (setting [1]) was 34 ± 2.4 nM.

The compound `OCCn1ccc2ccc(-c3noc(-c4ccc(OCCF)c(C(F)(F)F)c4)n3)cc21` [TZ73-14] came in with a half-maximal inhibitory concentration (IC50) at S1P1 (IC50 (nM) S1P1, Table 5) of 157 ± 24 nM.

Regarding `OCCn1ccc2cc(-c3noc(-c4ccc(OCCF)c(C(F)(F)F)c4)n3)ccc21` [TZ73-15], the IC50 at S1P1 (IC50 (nM) S1P1, Table 5) is 57 ± 4.6 nM.

Compound `OC(c1ccc(-c2noc(-c3ccc(OCCF)c(C(F)(F)F)c3)n2)cc1)C(F)(F)F` (stereo not drawn) [TZ73-27] gave an IC50 on S1P1 (IC50 (nM) S1P1, Table 5) of 15 ± 2.6 nM.

Take `CC(O)c1ccc(-c2noc(-c3ccc(OCCF)c(C(F)(F)F)c3)n2)cc1` (stereo not drawn) [TZ73-28]: the IC50 on S1P1 (IC50 (nM) S1P1, Table 5) amounted to 21 ± 2.5 nM.

With `CN(C(=O)OC(C)(C)C)c1cccc(-c2noc(-c3ccc(OCCF)c(C(F)(F)F)c3)n2)c1` [TZ73-124], the IC50 at S1P1 (IC50 (nM) S1P1, Table 5) was > 1000 nM.

For the compound `OCCOCc1ccc(-c2noc(-c3ccc(OCCF)c(C(F)(F)F)c3)n2)cc1I` [TZ73-126], the IC50 at S1P1 (IC50 (nM) S1P1, Table 5) was 118 nM.

In the case of `Cc1ccccc1-c1ccc(-c2nc(-c3ccc(COCCO)c(I)c3)no2)cc1C(F)(F)F` [TZ73-127], the IC50 on S1P1 (IC50 (nM) S1P1, Table 5) turned out to be 66.3 nM.

With `Cc1ccccc1-c1ccc(-c2nc(-c3ccc(CO)c(F)c3)no2)cc1C(F)(F)F` [TZ73-135], the IC50 in the test with S1P2-5 was > 1000 nM.

With `Cc1ccccc1-c1ccc(-c2nc(-c3ccc(CN(C)CCC(=O)O)c(I)c3)no2)cc1C(F)(F)F` [TZ73-143], at S1P1 (IC50 (nM) S1P1, Table 5), the half-inhibitory concentration (IC50) is 5.2 ± 2.7 nM.

At S1P1 (IC50 (nM) S1P1, Table 5), `OCCOCc1ccc(-c2noc(-c3ccc(OCCF)c(C(F)(F)F)c3)n2)cc1F` [TZ73-144] had an IC50 of 17 ± 7 nM.

`CN(CCC(=O)O)Cc1ccc(-c2noc(-c3ccc(OCCF)c(C(F)(F)F)c3)n2)cc1I` [TZ73-147]: the IC50 on S1P1 (setting [1]) stood at 33.1 ± 11.1 nM.

For `Cc1ccccc1-c1ccc(-c2nc(-c3ccc(CO)cc3)no2)cc1C(F)(F)F` [TZ82-1], the IC50 on S1P5 is 55.6 nM; on S1P1 (IC50 (nM) S1P1, Table 5) it was 4.6 nM.

On to `Cc1ccccc1-c1ccc(-c2nc(-c3ccc(CCCCO)cc3)no2)cc1C(F)(F)F` [TZ82-2], for which the IC50 on S1P5 worked out at 764 nM; on S1P1 (IC50 (nM) S1P1, Table 5), 9.8 nM.

Turning to `Cc1ccccc1-c1ccc(-c2nc(-c3ccc(COCCO)c(F)c3)no2)cc1C(F)(F)F` [TZ82-3], the IC50 in the test with S1P2-5 is > 1000 nM.

Regarding `Cc1ccccc1-c1ccc(-c2nc(-c3cccc4[nH]ccc34)no2)cc1C(F)(F)F` [TZ82-4], the concentration for half-maximal inhibition (IC50) on S1P5 was determined as 28.4 nM; at S1P1 (IC50 (nM) S1P1, Table 5), 1.1 ± 0.1 nM.

Consider `Cc1ccccc1-c1ccc(-c2nc(-c3ccc(CO)c(F)c3)no2)cc1C(F)F` [TZ82-26], for which the 50% inhibitory concentration (IC50) on S1P5 was determined as 85.2 nM; at S1P1 (IC50 (nM) S1P1, Table 5), 2.9 nM.

For `Cc1ccccc1-c1ccc(-c2nc(-c3ccc(COCCCCCO)c(F)c3)no2)cc1C(F)(F)F` [TZ82-29], the IC50 was 4.9 nM at S1P1 (IC50 (nM) S1P1, Table 5); 16.1 ± 0.3 nM at S1P1 (IC50 (nM) S1P1, Table 7); > 1000 nM with S1P2-5.

`FCCOc1ccc(-c2nc(-c3cccc4[nH]ccc34)no2)cc1C(F)(F)F` [TZ82-34]: in the test with S1P2-5, the half-inhibitory concentration (IC50) is > 1000 nM.

Take `FCCOc1ccc(-c2nc(-c3cccc4cc[nH]c34)no2)cc1C(F)(F)F` [TZ82-35]: at S1P1 (setting [1]), the IC50 turned out to be 98 ± 26 nM.

`FCCOc1ccc(-c2nc(-c3ccc4[nH]cnc4c3)no2)cc1C(F)(F)F` [TZ82-36] showed an IC50 on S1P1 (IC50 (nM) S1P1, Table 5) of 57 ± 7.6 nM.

`OCc1nc2cc(-c3noc(-c4ccc(OCCF)c(C(F)(F)F)c4)n3)ccc2[nH]1` [TZ82-37] yielded a half-inhibitory concentration (IC50) on S1P1 (IC50 (nM) S1P1, Table 5) of 28 ± 5.8 nM.

`CC(C)(C)OC(=O)Nc1cccc(-c2noc(-c3ccc(OCCF)c(C(F)(F)F)c3)n2)c1` [TZ82-40]: the concentration for half-maximal inhibition (IC50) on S1P1 (IC50 (nM) S1P1, Table 5) is > 1000 nM.

As to `CNc1cccc(-c2noc(-c3ccc(OCCF)c(C(F)(F)F)c3)n2)c1` [TZ82-41], on S1P1 (IC50 (nM) S1P1, Table 5), the half-inhibitory concentration (IC50) came out at 82 ± 1.8 nM.

Consider `Nc1cccc(-c2noc(-c3ccc(OCCF)c(C(F)(F)F)c3)n2)c1` [TZ82-42], for which, at S1P1 (IC50 (nM) S1P1, Table 5), the IC50 was 29 ± 0.5 nM.

In turn, `Nc1ccc(-c2noc(-c3ccc(OCCF)c(C(F)(F)F)c3)n2)cc1` [TZ82-43] returned an IC50 on S1P1 (IC50 (nM) S1P1, Table 5) of 44 ± 0.6 nM.

For the compound `Cc1ccccc1-c1ccc(-c2nc(-c3ccc(CN(C)CCCCO)c(F)c3)no2)cc1C(F)(F)F` [TZ82-53], the IC50 at S1P1 (setting [1]) was 4.9 nM.

As for `CN(CCC(=O)O)Cc1ccc(-c2noc(-c3ccc(OCc4cccnc4F)c(C(F)(F)F)c3)n2)cc1F` [TZ82-55], the IC50 is 74.4 nM on S1P5 and 159 nM on S1P1 (IC50 (nM) S1P1, Table 5).

Take `CN(CCC(=O)O)Cc1ccc(-c2noc(-c3ccc(OCc4cccc(F)n4)c(C(F)(F)F)c3)n2)cc1F` [TZ82-56]: the IC50 at S1P5 turned out to be 39.3 nM; at S1P1 (IC50 (nM) S1P1, Table 5), 55.4 nM.

For `Cc1ccccc1-c1ccc(-c2nc(-c3ccc(CN(C)CCC(=O)O)c(Br)c3)no2)cc1C(F)(F)F` [TZ82-65], the IC50 was determined as 11 nM at S1P5 and 2.1 nM on S1P1 (IC50 (nM) S1P1, Table 5).

As for `Cc1ccccc1-c1ccc(-c2nc(-c3ccc(COCCCO)c(F)c3)no2)cc1C(F)(F)F` [TZ82-78], the half-maximal inhibitory concentration (IC50) at S1P1 (IC50 (nM) S1P1, Table 5) was 2.8 nM.

In the case of `OCc1ccc(-c2noc(-c3ccc(OCc4cccnc4F)c(C(F)(F)F)c3)n2)cc1` [TZ82-91], the IC50 at S1P5 was determined as 182 nM; on S1P1 (IC50 (nM) S1P1, Table 5) it was 239 nM.

`OCc1ccc(-c2noc(-c3ccc(OCc4cccc(F)n4)c(C(F)(F)F)c3)n2)cc1` [TZ82-92]: the IC50 at S1P5 stood at 934 nM; on S1P1 (IC50 (nM) S1P1, Table 5), 243 nM.

As for `Cc1ccccc1-c1ccc(-c2nc(-c3ccc(CNCCC(=O)O)c(F)c3)no2)cc1C(F)(F)F` [TZ82-94], the IC50 came out at 7.2 nM at S1P5 and 0.7 nM at S1P1 (IC50 (nM) S1P1, Table 5).

In the case of `Cc1ccccc1-c1ccc(-c2nc(-c3ccc(CNCCCO)c(F)c3)no2)cc1C(F)(F)F` [TZ82-95], the concentration for half-maximal inhibition (IC50) was found to be 12.8 nM at S1P5 and 2.1 nM on S1P1 (setting [1]).

`Cc1ccccc1-c1ccc(-c2nc(-c3ccc(CN(C)CCS(=O)(=O)O)c(F)c3)no2)cc1C(F)(F)F` [TZ82-101] yielded an IC50 at S1P1 (IC50 (nM) S1P1, Table 5) of 2.3 nM.

In the case of `Cc1ccccc1-c1ccc(-c2nc(-c3ccc(CN(C)CCNC(=O)OC(C)(C)C)c(F)c3)no2)cc1C(F)(F)F` [TZ82-102], at S1P1 (IC50 (nM) S1P1, Table 5), the concentration for half-maximal inhibition (IC50) amounted to 23.8 nM.

With `Cc1ccccc1-c1ccc(-c2nc(-c3ccc(CNO)c(F)c3)no2)cc1C(F)(F)F` [TZ82-105], the IC50 at S1P1 (IC50 (nM) S1P1, Table 5) amounted to 8.7 nM.

In the case of `CNCc1ccc(-c2noc(-c3ccc(OCCF)c(C(F)(F)F)c3)n2)cc1F` [TZ82-110], the IC50 at S1P1 (IC50 (nM) S1P1, Table 5) was 13.4 nM.

For `CN(CCO)Cc1ccc(-c2noc(-c3ccc(OCCF)c(C(F)(F)F)c3)n2)cc1F` [TZ82-114], the concentration for half-maximal inhibition (IC50) amounted to 120 nM at S1P5 and 14.6 nM on S1P1 (IC50 (nM) S1P1, Table 5).

As for `CN(CCCCO)Cc1ccc(-c2noc(-c3ccc(OCCF)c(C(F)(F)F)c3)n2)cc1F` [TZ82-115], on S1P5, the IC50 came out at 721 nM.

As to `CNC(=O)CCN(C)Cc1ccc(-c2noc(-c3ccc(-c4ccccc4C)c(C(F)(F)F)c3)n2)cc1F` [TZ82-118], the half-maximal inhibitory concentration (IC50) on S1P1 (IC50 (nM) S1P1, Table 5) amounted to 3 nM.

Turning to `CN(CCCO)Cc1ccc(-c2noc(-c3ccc(OCCF)c(C(F)(F)F)c3)n2)cc1` [TZ82-124], on S1P5, the IC50 turned out to be 450 nM.

On to `COc1ccc(-c2nc(-c3ccc(CN(C)CCCO)cc3)no2)cc1C(F)(F)F` [TZ82-126], for which the half-maximal inhibitory concentration (IC50) at S1P5 turned out to be 1940 nM.
